Experimental findings from patent US20090137652A1, “METHODS FOR NEUROPROTECTION” (priority 2005, published 2009) are described below.

Assay type in all cases: in vivo, rat
Assay [1] relates to rats subjected to li-pilo SE. In words: Latency to and frequency of spontaneous seizures by video recording, lithium-pilocarpine model (Example 2). The method, then:
(§1) All rats received lithium chloride (3 meq/kg, i.p., Sigma, St Louis, Mo., U.S.A.) and about 20 h later, all animals received also methylscopolamine bromide (1 mg/kg, s.c., Sigma) that was administered to limit the peripheral effects of the convulsant. SE was induced by injecting pilocarpine hydrochloride (25 mg/kg, s.c., Sigma) 30 min after methylscopolamine. The effects of increasing doses of TC (RWJ) were studied in 5 groups of rats. […] The control group received vehicle instead of pilocarpine and TC. The rats surviving SE were then injected about 10 h after the first TC injection with a second i.p. injection of 1.25 mg/kg DZP for the DZP group or of the same dose of TC as in the morning and were maintained under a twice daily TC treatment (s.c.) for 6 additional days while DZP rats received a vehicle injection.
The effects of DZP and the 4 doses of TC on epileptogenesis were investigated by daily video recording of the animals for 10 h per day. Video recording was performed for 4 weeks during which the occurrence of the first seizure was noted as well as the total number of seizures over the whole period. Animals were then taken off the video recording system and kept for 4 additional weeks in our animal facilities before they were sacrificed after a total period of 8 weeks of epilepsy.
For neuronal damage and epileptogenesis, statistical analysis between groups was performed by means of a one-way analysis of variance followed by a post-hoc Dunnett or Fisher test using the Statistica software.

For assay [2], the system named is rats subjected to Li-pilo induced SE. In words: EEG patterns during lithium-pilocarpine SE (Example 1). On the procedure:
Male Wistar rats weighing 225-250 g, provided by Janvier Breeding Center (Le Genest-St-lste, France) were housed under controlled standard conditions (light/dark cycle, 7.00 a.m.-7.00 p.m. lights on), with food and water available ad libitum. All animal experimentation was performed in accordance with the rules of the European Communities Council Directive of Nov. 24, 1986 (86/609/EEC), and the French Department of Agriculture (License No 67-97). For electrode implantation, rats were anesthetized by an i.p. injection of 2.5 mg/kg diazepam (DZP, Valium, Roche, France) and […] ketamine chlorhydrate (Imalgene 1000, Rhone Merrieux, France). Four single-contact recording electrodes were placed on the skull, over the parietal cortex, two on each side.
All rats received lithium chloride (3 meq/kg, i.p., Sigma, St Louis, Mo., U.S.A.); about 20 h later, animals were placed into plexiglas boxes, in order to record baseline cortical EEG. Methylscopolamine bromide (1 mg/kg, s.c., Sigma) was administered to limit the peripheral effects of the convulsant. SE was induced by injecting pilocarpine hydrochloride (25 mg/kg, s.c., Sigma) 30 min after methyl-scopolamine. The bilateral EEG cortical activity was recorded during the whole duration of SE and behavioral changes were noted.
The effects of increasing doses of the test compound were studied on 3 groups of rats. The animals of the first group received 10 mg/kg of the test compound, i.p., 1 h after the onset of SE (pilo-TC10) while the animals of groups 2 and 3 received 30 and 60 mg/kg of the test compound (pilo-TC30 and pilo-TC60), respectively.
Another group was injected with 2 mg/kg diazepam (DZP, i.m.) at 1 h after the onset of SE. This is a standard treatment to improve animals survival after SE (pilo-DZP). The control group received saline instead of pilocarpine and the test compound (saline-saline). The pilo-test compound rats surviving SE were then injected about 10 h after the first test compound injection with a second i.p. injection of the same dose of the test compound and were maintained under a twice daily treatment with the test compound for 6 additional days. Pilo-DZP received a second injection of 1 mg/kg DZP on the day of SE at about 10 h after the first one. Thereafter, Pilo-DZP and saline-saline rats received twice daily an equivalent volume of saline.
The effects of the test compound on the EEG and on the latency to occurrence of SRS were investigated by daily video recording of the animals for 10 h per day and the recording of the electrographic activity twice a week for 8 h.

Assay [3] relates to rats subjected to li-pilo SE. In words: Mortality over the first 48 h after lithium-pilocarpine SE (Example 2). The method, then:
Adult male Sprague-Dawley rats provided by Janvier Breeding Center (Le Genest-St-Isle, France) were housed under controlled, uncrowded standard conditions at 20-22° C. (light/dark cycle, 7.00 a.m.-7.00 p.m. lights on), with food and water available ad libitum. All animal experimentation was performed in accordance with the rules of the European Communities Council Directive of Nov. 24, 1986 (86/609/EEC), and the French Department of Agriculture (License No 67-97).
as §1
A total number of 143 Sprague-Dawley rats weighing 250-330 g were subjected to lithium-pilocarpine (Li-pilo)-induced SE. […] The behavioral characteristics of SE were identical in both li-pilo-DZP and li-pilo-TC groups. Within 5 min after pilocarpine injection, rats developed diarrhea, piloerection and other signs of cholinergic stimulation. […] Recurrent seizures started around 15-20 min after pilocarpine administration. These seizures which associated episodes of head and bilateral forelimb myoclonus with rearing and falling progressed to SE at about 35-40 min after pilocarpine, as previously described (Turski et al., 1989; Dube et al., 2001; Andre et al., 2003). The control group not subjected to SE and receiving lithium and saline was composed of 20 rats.

SMILES strings stand for the structures. “And” between values parts separate entries of the source, which are not always exact repeats. Identical values can stand only once. Marks after values point to notes of the source that are not given here.

Turning to `CN1C(=O)CN=C(c2ccccc2)c2cc(Cl)ccc21` [DZP, diazepam, reference compound], the “frequency of spontaneous seizures over four weeks of recording” value in assay [1] (DZP and TC30 groups) was “tendency to be higher”. In assay [1] (DZP, 14 animals), the “Latency to the first spontaneous seizure” value is 15.5 ± 2.3 days and 15.5 ± 2.34 days. In addition, the “EEG activity in the cortex and the hippocampus by 6-7 h of SE” value in assay [2] (DZP-treated rats (2 mg/kg i.m.)) is on record as “spiking activity was still present”. The “degree of mortality over the first 48 h after SE” value is given as 36% in assay [3] (DZP 2.5 mg/kg i.m., group devoted to cell counting at 14 days, 4/11); 7% in assay [3] (DZP 2.5 mg/kg i.m., group devoted to latency to SRS and late cell counting, 1/14).
With `NC(=O)OC[C@@H](O)c1ccccc1Cl` [Formula 7], the “frequency of spontaneous seizures over four weeks of recording” value is reported as “tendency to be higher” in assay [1] (DZP and TC30 groups); “lower” in assay [1] (TC60, 90 and 120 groups, significant for total or mean number of seizures over the four weeks). Moreover, the “rats with short latencies to seizures (shorter than 40 days after SE)” value in assay [1] (TC 90 mg/kg, 4/11) came out at 36%; in assay [1] (TC 120 mg/kg, 1/9) it was 11%; in assay [1] (TC at 30 mg/kg (so in the source), 7/10), 70%. For the same compound, the “latency to epilepsy of the long latency subgroup relative to the short latency” value in assay [1] (TC 60, 90 and 120 mg/kg, subgroup of 2-4 animals per group) is given as 4-6 times. In assay [1] (at both of the two highest doses of TC (90 and 120 mg/kg)), the “percentage of non-epileptic rats (no seizure over 150 days post-SE)” value was determined as 45%. In addition, the “Latency to the first spontaneous seizure” value in assay [1] (pilo-TC30 (30 mg/kg), 8 animals, listed as TC) stood at 11.6 ± 2.5 days; in assay [1] (pilo-TC60 (60 mg/kg), Long latency subgroup (n = 3)) it was 76.7 ± 15.6 °° days; in assay [1] (pilo-TC60 (60 mg/kg), Short latency subgroup (n = 7)), 17.4 ± 5.4 days; in assay [1] (pilo-TC90 (90 mg/kg), Long latency subgroup (n = 2)), 52.0 ± 1.0 ° days; in assay [1] (pilo-TC90 (90 mg/kg), Short latency subgroup (n = 4)), 14.8 ± 5.7 days; in assay [1] (pilo-TC120 (120 mg/kg), Long latency subgroup (n = 4)) it was 84.5 ± 16.7 °° days. In addition, the “Latency to the first spontaneous seizure” value is listed as 150** °° days in assay [1] (pilo-TC120 (120 mg/kg), Non epileptic subgroup (n = 4), no seizure over 150 days post-SE) and 13.0 days in assay [1] (pilo-TC120 (120 mg/kg), Short latency subgroup (n = 1)). In assay [2] (TC10-treated rats (10 mg/kg i.p.)), the “EEG activity in the cortex and the hippocampus by 6-7 h of SE” value is given as “spiking activity was still present”. In addition, in assay [2] (TC30 rats (30 mg/kg i.p.)), the “amplitude of the EEG by 6-7 h of SE, hippocampus” value was “came back to baseline levels”. For the same compound, the “amplitude of the EEG by 6-7 h of SE, hippocampus and cortex (both structures)” value in assay [2] (TC60 treated rats (60 mg/kg i.p.)) is recorded as “came back to baseline levels”. The “degree of mortality over the first 48 h after SE” value in assay [3] (TC30 (30 mg/kg i.p.), group devoted to cell counting at 14 days, 4/12) is 33%; in assay [3] (TC30, group devoted to latency to SRS and late cell counting, 3/11), 27%; in assay [3] (TC60 (60 mg/kg i.p.), group devoted to cell counting at 14 days, 1/12) it was 8%; in assay [3] (TC60, group devoted to latency to SRS and late cell counting, 0/10), 0%; in assay [3] (TC90 (90 mg/kg i.p.), group devoted to cell counting at 14 days, 0/10), 0%; in assay [3] (TC90, group devoted to latency to SRS and late cell counting, 0/11), 0%. Further, the “degree of mortality over the first 48 h after SE” value amounted to 33% in assay [3] (TC120 (120 mg/kg i.p.), group devoted to cell counting at 14 days, 4/12); 0% in assay [3] (TC120, group devoted to latency to SRS and late cell counting, 0/9).
